The values that follow come from patent US20170333459A1 (priority 2010, published 2017).

The subject of this test is ectromelia, cowpox, vaccinia, or monkeypox virus. Further details: species or system mice. As to conditions: mouse, in vivo.

For the compound `CCCCCCCCCCCCCCCCOCCCOP(=O)(O)CO[C@H](CO)Cn1ccc(N)nc1=O` [CMX001, 1-O-hexadecyloxypropyl cidofovir], the preventing mortality result is given as “effective in preventing mortality”.
